Measured values published in ChEMBL document CHEMBL3632480, “Optimization of an indazole series of selective estrogen receptor degraders: Tumor regression in a tamoxifen-resistant breast cancer xenograft” (Bioorg Med Chem Lett, 2015).

Key:
Rattus norvegicus = test: Decrease in uterine wet weight of CD-IGS rat at 1 mg/kg, po qd followed 15 mins later administration of 0.1 mg/kg, po 17alpha-ethynylestradiol for 3 consecutive days; assay type: functional
MCF7 [1] = test: Decrease in estrogen receptor alpha level in human MCF7 cells after 4 hrs by in-cell western assay relative to fulvestrant; assay type: functional; details: MCF7, 4 h
MCF7 [2] = test: Cytotoxicity against human MCF7 cells assessed as decrease in cell viability after 5 days by celltiterGlo assay; assay type: functional, cell-based; details: MCF7, 120 h
[3] = Fraction unbound in CD-1 mouse plasma by equilibrium dialysis; assay type: ADME, cell-free
MCF7 [4] = test: Decrease in estrogen receptor alpha level in human MCF7 cells after 4 hrs by in-cell western assay; assay type: functional, cell-based; details: MCF7, 4 h
[5] = AUC in CD-1 mouse at 10 mg/kg, po; assay type: ADME, organism-based; details: in vivo
MCF7 [6] = test: Decrease in estrogen receptor alpha level in human MCF7 cells 2 to 10 uM after 4 hrs by in-cell western assay; assay type: functional; details: MCF7, 4 h

SMILES | inhibition (INH) (Rattus norvegicus) | Emax (MCF7 [1]) | IC50 (MCF7 [2]) | fraction unbound [3] | EC50 (MCF7 [4]) | AUC [5] | Emax (MCF7 [6])
CC/C(=C(/c1ccc(/C=C/C(=O)O)cc1)c1ccc2[nH]ncc2c1)c1ccc(F)cc1Cl [BRILANESTRANT] | 79% | 90% | 2.5 nM | 0.011 |  |  | 
CS(=O)(=O)c1ccc(/C(=C(\c2ccc(/C=C/C(=O)O)cc2)c2ccc3[nH]nc(F)c3c2)C2CCC2)c(Cl)c1 | 29% | 91% | 2.3 nM |  | 0.9 nM | 140 ng·h/mL | 
O=C(O)/C=C/c1ccc(/C(=C(\c2ncc(Cl)cc2Cl)C2CCC2)c2ccc3[nH]nc(F)c3c2)cc1 | 80% | 91% | 3.5 nM | 0.011 | 0.8 nM | 15600 ng·h/mL | 
N#Cc1cc(Cl)ccc1/C(=C(\c1ccc(/C=C/C(=O)O)cc1)c1ccc2[nH]nc(F)c2c1)C1CCC1 | 87% | 94% | 0.7 nM | 0.007 | 0.3 nM | 3700 ng·h/mL | 
N#Cc1ccc(/C(=C(\c2ccc(/C=C/C(=O)O)cc2)c2ccc3[nH]nc(F)c3c2)C2CCC2)c(Cl)c1 | 85% | 93% | 0.7 nM | 0.006 | 0.3 nM | 7800 ng·h/mL | 
CC(C)/C(=C(/c1ccc(/C=C/C(=O)O)cc1)c1ccc2[nH]ncc2c1)c1ccccc1 |  | 91% | 4 nM |  | 4.3 nM |  | 
O=C(O)/C=C/c1ccc(/C(=C(\c2ccccc2)C(F)F)c2ccc3[nH]ncc3c2)cc1 |  | 91% | 14 nM |  | 4.7 nM |  | 
O=C(O)/C=C/c1ccc(/C(=C(\c2ccccc2)C2CC2)c2ccc3[nH]ncc3c2)cc1 |  | 89% | 13 nM |  | 2.8 nM |  | 
C/C(=C(/c1ccc(/C=C/C(=O)O)cc1)c1ccc2[nH]ncc2c1)c1ccccc1 |  | 92% | 40 nM |  | 26 nM |  | 
CC/C(=C(/c1ccc(/C=C/C(=O)O)cc1)c1ccc2[nH]ncc2n1)c1ccccc1 |  | 88% | 33 nM |  | 20 nM |  | 
CS(=O)(=O)c1cc(Cl)ccc1/C(=C(\c1ccc(/C=C/C(=O)O)cc1)c1ccc2[nH]nc(F)c2c1)C1CCC1 | 94% | 91% | 0.3 nM | 0.035 | 0.3 nM | 200 ng·h/mL | 
COC/C(=C(/c1ccc(/C=C/C(=O)O)cc1)c1ccc2[nH]ncc2c1)c1ccccc1 |  | 86% | 88 nM |  | 35 nM |  | 
O=C(O)/C=C/c1ccc(/C(=C(\c2ccccc2Cl)C2CCC2)c2ccc3[nH]nc(F)c3c2)cc1 | 82% | 90% | 1.1 nM | 0.003 | 0.4 nM | 11100 ng·h/mL | 
CC/C(=C(/c1ccc(/C=C/C(=O)O)cc1)c1ccc2[nH]ncc2c1C#N)c1ccccc1 |  | 91% | 1.5 nM |  | 0.5 nM | 500 ng·h/mL | 
CC/C(=C(/c1ccc(/C=C/C(=O)O)cc1)c1ccc2[nH]ncc2c1C)c1ccccc1 |  | 90% | 50 nM |  | 13 nM |  | 
COc1ccc(/C(=C(\c2ccc(/C=C/C(=O)O)cc2)c2ccc3[nH]nc(F)c3c2)C2CCC2)c(Cl)c1 | 90% | 93% | 2.4 nM | 0.001 | 0.8 nM | 20500 ng·h/mL | 
CC/C(=C(/c1ccc(/C=C/C(=O)O)cc1)c1cc2cn[nH]c2cc1Cl)c1ccccc1 |  |  | 137 nM |  | 54 nM |  | 87%
O=C(O)/C=C/c1ccc(/C(=C(\c2ccncc2Cl)C2CCC2)c2ccc3[nH]nc(F)c3c2)cc1 | 74% | 90% | 0.8 nM | 0.012 | 0.3 nM | 1800 ng·h/mL | 
O=C(O)/C=C/c1ccc(/C(=C(/CCO)c2ccccc2)c2ccc3[nH]ncc3c2)cc1 |  |  | > 1000 nM |  | > 1000 nM |  | 
O=C(O)/C=C/c1ccc(/C(=C(\c2ncccc2Cl)C2CCC2)c2ccc3[nH]nc(F)c3c2)cc1 | 83% | 90% | 1.2 nM | 0.032 | 0.3 nM | 900 ng·h/mL | 
CC/C(=C(/c1ccc(/C=C/C(=O)O)cc1)c1cnc2[nH]ncc2c1)c1ccccc1 |  |  | 302 nM |  | 116 nM |  | 93%
Cc1cccnc1/C(=C(\c1ccc(/C=C/C(=O)O)cc1)c1ccc2[nH]nc(F)c2c1)C1CCC1 |  | 88% | 4.2 nM |  | 0.8 nM | 190 ng·h/mL | 
COCC/C(=C(/c1ccc(/C=C/C(=O)O)cc1)c1ccc2[nH]ncc2c1)c1ccccc1 |  | 92% | 63 nM |  | 47 nM |  | 
CC/C(=C(/c1ccc(/C=C/C(=O)O)cc1)c1cc(C)c2[nH]ncc2c1)c1ccccc1 |  | 89% | 59 nM |  | 19 nM |  | 
O=C(O)/C=C/c1ccc(/C(=C(\c2ccccc2)C2CCC2)c2ccc3[nH]nc(F)c3c2)cc1 | 81% | 90% | 1.4 nM | 0.003 | 0.4 nM | 14600 ng·h/mL | 

SMILES | inhibition (INH) (Rattus norvegicus) | Emax (MCF7 [1]) | IC50 (MCF7 [2]) | fraction unbound [3] | EC50 (MCF7 [4]) | AUC [5] | Emax (MCF7 [6])
N#Cc1cc(F)ccc1/C(=C(\c1ccc(/C=C/C(=O)O)cc1)c1ccc2[nH]nc(F)c2c1)C1CCC1 | 57% | 92% | 1.2 nM | 0.021 | 0.3 nM | 760 ng·h/mL | 
CC/C(=C(/c1ccc(/C=C/C(=O)O)cc1)c1ccc2[nH]ncc2c1Cl)c1ccccc1 |  | 93% | 1.6 nM |  | 0.8 nM | 18000 ng·h/mL | 
O=C(O)/C=C/c1ccc(/C(=C(/CCCl)c2ccccc2)c2ccc3[nH]ncc3c2)cc1 |  | 90% | 9 nM |  | 1.4 nM |  | 
O=C(O)/C=C/c1ccc(/C(=C(\c2ccccc2)C2CCC2)c2ccc3[nH]ncc3c2)cc1 |  | 89% | 1.4 nM |  | 0.3 nM |  | 
O=C(O)/C=C/c1ccc(/C(=C(\c2ccccc2)C2CCCC2)c2ccc3[nH]ncc3c2)cc1 |  | 90% | 10 nM |  | 9.3 nM |  | 
O=C(O)/C=C/c1ccc(/C(=C(\c2ccccc2)C2CCCCC2)c2ccc3[nH]ncc3c2)cc1 |  | 86% | 64 nM |  | 25 nM |  | 
O=C(O)/C=C/c1ccc(/C(=C(\c2ccc(F)cc2Cl)C2CCC2)c2ccc3[nH]nc(F)c3c2)cc1 |  | 91% | 2 nM |  | 0.6 nM |  | 
CCC/C(=C(/c1ccc(/C=C/C(=O)O)cc1)c1ccc2[nH]ncc2c1)c1ccccc1 |  | 92% | 11 nM |  | 4.6 nM |  | 
COc1ccc(/C(=C(\c2ccc(/C=C/C(=O)O)cc2)c2ccc3[nH]nc(F)c3c2)C2CCC2)c(C#N)c1 | 82% | 94% | 0.5 nM | 0.004 | 0.3 nM | 2000 ng·h/mL | 
O=C(O)/C=C/c1ccc(/C(=C(/CCF)c2ccccc2)c2ccc3[nH]ncc3c2)cc1 |  | 91% | 2.1 nM |  | 1.4 nM |  | 
CC/C(=C(/c1ccc(/C=C/C(=O)O)cc1)c1ccc2[nH]nc(F)c2c1)c1ccccc1 |  | 90% | 5 nM |  | 1.1 nM | 14000 ng·h/mL | 
N#Cc1cc(Cl)cnc1/C(=C(\c1ccc(/C=C/C(=O)O)cc1)c1ccc2[nH]nc(F)c2c1)C1CCC1 |  | 93% | 1.1 nM |  | 0.4 nM | 250 ng·h/mL | 
O=C(O)/C=C/c1ccc(/C(=C(\c2ccccc2)C(F)(F)F)c2ccc3[nH]ncc3c2)cc1 |  | 92% | 5.5 nM |  | 3.1 nM |  | 
C[C@]12CC[C@@H]3c4ccc(O)cc4C[C@@H](CCCCCCCCC[S+]([O-])CCCC(F)(F)C(F)(F)F)[C@H]3[C@@H]1CC[C@@H]2O (stereo not given in full) [FULVESTRANT] |  | 100% | 0.6 nM |  | 0.4 nM |  | 
CC/C(=C(/c1ccc(/C=C/C(=O)O)cc1)c1cc(F)c2[nH]ncc2c1)c1ccccc1 |  | 92% | 7.5 nM |  | 6.4 nM |  | 
CC/C(=C(/c1ccc(/C=C/C(=O)O)cc1)c1ccc2[nH]ncc2c1F)c1ccccc1 |  | 89% | 3 nM |  | 0.9 nM | 8200 ng·h/mL | 
CC/C(=C(/c1ccc(/C=C/C(=O)O)cc1)c1ccc2[nH]ncc2c1OC)c1ccccc1 |  | 91% | 55 nM |  | 19 nM |  | 
O=C(O)/C=C/c1ccc(/C(=C(\c2ncc(F)cc2Cl)C2CCC2)c2ccc3[nH]nc(F)c3c2)cc1 |  | 89% | 1.7 nM |  | 0.6 nM |  | 
O=C(O)/C=C/c1ccc(/C(=C(\c2ccccn2)C2CCC2)c2ccc3[nH]nc(F)c3c2)cc1 |  | 90% | 22 nM |  | 7.6 nM |  | 
CC/C(=C(/c1ccc(/C=C/C(=O)O)cc1)c1ccc2[nH]ncc2c1)c1ccccc1 |  | 90% | 7.2 nM |  |  |  | 
CCCC/C(=C(/c1ccc(/C=C/C(=O)O)cc1)c1ccc2[nH]ncc2c1)c1ccccc1 |  | 92% | 10 nM |  | 11 nM |  | 
O=C(O)/C=C/c1ccc(/C(=C(\c2ccc(C(F)(F)F)cc2Cl)C2CCC2)c2ccc3[nH]nc(F)c3c2)cc1 |  | 94% | 8.2 nM |  | 3 nM |  | 
O=C(O)/C=C/c1ccc(/C(=C(\c2ncccc2C(F)(F)F)C2CCC2)c2ccc3[nH]nc(F)c3c2)cc1 |  | 89% | 1.1 nM | 0.048 | 0.3 nM | 690 ng·h/mL | 
N#Cc1cnccc1/C(=C(\c1ccc(/C=C/C(=O)O)cc1)c1ccc2[nH]nc(F)c2c1)C1CCC1 | 22% | 92% | 3.8 nM | 0.1 | 1.1 nM | 70 ng·h/mL | 
CC/C(=C(/c1ccc(/C=C/C(=O)O)cc1)c1cc(Cl)c2[nH]ncc2c1)c1ccccc1 |  | 92% | 56 nM |  | 18 nM |  | 
